{"source": "patent US20240051960A1", "about": "“SPIROCYCLIC IMIDAZOLIDINONES AND IMIDAZOLIDINEDIONES FOR TREATMENT OF LIGHT CHAIN AMYLOIDOSIS” (Protego Biopharma, Inc., priority 2021, published 2024)", "tested_on": "Recombinant amyloidogenic full length light chain protein WIL-FL T46L", "experiment": "Differential Scanning Fluorimetry (thermal shift) assay", "assay_type": "binding", "settings": "protein and compounds incubated at RT for 30 min before adding the dye, Thermal Shift Protein Stability Kit, 96-well plates", "method": "Differential Scanning Fluorimetry Assay\nThe stabilization effects the compounds have on the immunoglobulin light chain protein is quantitively measured using a thermal shift assay. Recombinant amyloidogenic full length light chain protein WIL-FL T46L is produced in E. coli, purified, and used in the assay. The Thermal Shift Protein Stability Kit from Biotium is used and the assay is done in 96-well Plates following the manufacture's instructions. The protein and compounds are incubated at RT for 30 min before adding the dye and subjected to the thermal shift assay. The thermal stability of each sample is then determined using standard curve fitting methods.\nCompounds that induce shifts in the ranges below are listed in the table below: • 0-0.5° C.=* • >0.5-1° C.=** • >1-1.5° C.=*** • >1.5° C.=****", "data": [{"smiles": "O=C(CN1C(=O)NC2(CCN(c3c[nH]c(=O)[nH]c3=O)CC2)C1=O)Nc1ccc(C(F)(F)F)cc1", "note": "[Compound 90]", "values": [{"measurement": "Thermal Shift", "result": "**** (>1.5° C.=****)"}]}]}
